# Measured values as given in ChEMBL document CHEMBL4270641, “ATP citrate lyase (ACLY) inhibitors: An anti-cancer strategy at the crossroads of glucose and lipid metabolism” (Eur J Med Chem, 2018).
# What was measured:
# ATP-citrate synthase [1] = target: T1, ATP-citrate synthase (Homo sapiens, UniProt P53396); experiment: Inhibition of ACLY (unknown origin)
# T1 sequence (P53396 whole entry): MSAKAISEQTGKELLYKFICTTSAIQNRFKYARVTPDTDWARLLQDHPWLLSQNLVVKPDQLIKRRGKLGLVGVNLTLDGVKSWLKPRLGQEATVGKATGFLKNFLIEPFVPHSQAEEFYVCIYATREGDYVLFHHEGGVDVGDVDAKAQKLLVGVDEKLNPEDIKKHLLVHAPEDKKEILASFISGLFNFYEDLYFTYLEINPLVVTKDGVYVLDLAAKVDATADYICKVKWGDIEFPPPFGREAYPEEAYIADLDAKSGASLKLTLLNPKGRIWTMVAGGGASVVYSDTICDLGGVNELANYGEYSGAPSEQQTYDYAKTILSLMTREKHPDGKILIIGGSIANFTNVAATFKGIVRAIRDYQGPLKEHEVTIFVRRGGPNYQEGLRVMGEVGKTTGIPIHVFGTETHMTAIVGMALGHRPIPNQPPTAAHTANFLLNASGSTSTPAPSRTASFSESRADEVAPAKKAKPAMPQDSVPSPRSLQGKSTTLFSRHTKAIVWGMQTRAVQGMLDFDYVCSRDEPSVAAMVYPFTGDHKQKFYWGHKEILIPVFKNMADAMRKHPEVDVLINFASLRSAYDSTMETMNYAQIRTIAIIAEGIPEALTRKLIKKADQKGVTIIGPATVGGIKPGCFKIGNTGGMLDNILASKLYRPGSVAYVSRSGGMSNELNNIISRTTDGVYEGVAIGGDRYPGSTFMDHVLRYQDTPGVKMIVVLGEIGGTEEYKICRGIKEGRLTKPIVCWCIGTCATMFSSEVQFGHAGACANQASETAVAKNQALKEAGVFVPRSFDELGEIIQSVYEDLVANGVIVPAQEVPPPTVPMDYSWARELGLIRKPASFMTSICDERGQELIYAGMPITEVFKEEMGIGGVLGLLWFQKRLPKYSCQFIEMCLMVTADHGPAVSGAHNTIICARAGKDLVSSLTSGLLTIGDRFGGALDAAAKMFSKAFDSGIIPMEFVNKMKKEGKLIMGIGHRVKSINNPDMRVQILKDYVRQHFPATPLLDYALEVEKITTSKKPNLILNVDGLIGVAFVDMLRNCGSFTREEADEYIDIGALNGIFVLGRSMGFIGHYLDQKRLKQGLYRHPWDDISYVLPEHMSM
# ATP-citrate synthase [2] = target: T2, ATP-citrate synthase (Rattus norvegicus, UniProt P16638); experiment: Reversible inhibition of rat liver ACLY
# T2 sequence (P16638 whole entry): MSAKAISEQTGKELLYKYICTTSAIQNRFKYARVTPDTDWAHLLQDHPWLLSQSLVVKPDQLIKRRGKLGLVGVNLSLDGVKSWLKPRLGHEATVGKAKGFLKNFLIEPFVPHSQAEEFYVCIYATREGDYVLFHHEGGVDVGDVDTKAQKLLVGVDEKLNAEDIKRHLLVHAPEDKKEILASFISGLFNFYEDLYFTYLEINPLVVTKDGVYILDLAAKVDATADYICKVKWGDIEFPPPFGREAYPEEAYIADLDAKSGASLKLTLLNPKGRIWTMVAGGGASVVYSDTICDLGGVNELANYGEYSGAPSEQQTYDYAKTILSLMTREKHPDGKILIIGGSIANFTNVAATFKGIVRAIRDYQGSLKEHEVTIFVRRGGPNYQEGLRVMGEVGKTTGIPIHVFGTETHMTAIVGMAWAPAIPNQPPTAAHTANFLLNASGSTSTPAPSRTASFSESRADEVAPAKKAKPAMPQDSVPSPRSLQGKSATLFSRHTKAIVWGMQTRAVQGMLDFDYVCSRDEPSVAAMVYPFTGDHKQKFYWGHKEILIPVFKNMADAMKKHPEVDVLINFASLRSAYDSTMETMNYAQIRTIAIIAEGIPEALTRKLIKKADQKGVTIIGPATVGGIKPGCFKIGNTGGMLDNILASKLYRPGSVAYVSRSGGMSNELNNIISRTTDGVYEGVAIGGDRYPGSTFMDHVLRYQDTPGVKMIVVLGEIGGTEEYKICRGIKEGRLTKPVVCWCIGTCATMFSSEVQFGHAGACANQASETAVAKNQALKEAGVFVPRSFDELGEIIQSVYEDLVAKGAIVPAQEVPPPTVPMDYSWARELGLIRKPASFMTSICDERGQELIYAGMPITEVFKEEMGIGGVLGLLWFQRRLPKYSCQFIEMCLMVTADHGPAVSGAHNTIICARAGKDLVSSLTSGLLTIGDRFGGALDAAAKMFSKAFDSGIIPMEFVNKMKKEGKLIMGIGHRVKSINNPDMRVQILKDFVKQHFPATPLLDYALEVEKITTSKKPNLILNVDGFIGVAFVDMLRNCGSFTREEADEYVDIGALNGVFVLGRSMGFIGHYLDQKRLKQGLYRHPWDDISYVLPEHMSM
# Rattus norvegicus [3] = experiment: In vivo inhibition of ACLY in po dosed rat assessed as reduction in plasma cholesterol level after 7 days relative to control; assay type: functional
# Rattus norvegicus [4] = experiment: In vivo inhibition of ACLY in po dosed rat assessed as reduction in plasma triglyceride level after 7 days relative to control; assay type: functional
# Canis familiaris [5] = experiment: In vivo inhibition of ACLY in po dosed dog assessed as reduction in plasma cholesterol level after 15 days relative to control; assay type: functional, Canis lupus familiaris
# Canis familiaris [6] = experiment: In vivo inhibition of ACLY in po dosed dog assessed as reduction in plasma triglyceride level after 15 days relative to control; assay type: functional, Canis lupus familiaris
# ATP-citrate synthase [7] = target: T2, ATP-citrate synthase; experiment: (§1) Inhibition of rat liver ACLY
# ATP-citrate synthase [8] = target: T1, ATP-citrate synthase
# Description: Competitive inhibition of human liver ACLY using varying levels of citrate as substrate
# Rattus norvegicus [9] = experiment: In vivo inhibition of ACLY in rat administered through diet relative to control; assay type: functional
# [10] = target: T3, ATP-citrate synthase (Rattus norvegicus) (UniProt P16638); experiment: as §1; details: concentration not given here
# T3 sequence (whole entry): T2 sequence (P16638 whole entry)
# PC-3 = experiment: Antiproliferative activity against human PC3 cells; assay type: functional, cell-based
# [11] = target: T4, ATP-citrate synthase (Homo sapiens) (UniProt P53396); experiment: Inhibition of ACLY in human HepG2 cells assessed as reduction in cholesterol synthesis at 30 uM relative to control; assay type: cell-based
# T4 sequence (whole entry): T1 sequence (P53396 whole entry)
# [12] = target: T4, ATP-citrate synthase (Homo sapiens); experiment: Inhibition of ACLY in human HepG2 cells assessed as reduction in fatty acid synthesis at 30 uM relative to control; assay type: cell-based
# A549 = experiment: Antiproliferative activity against human A549 cells; assay type: functional, cell-based
# SK-OV-3 = experiment: Antiproliferative activity against human SKOV3 cells; assay type: functional, cell-based
# LNCaP = experiment: Antiproliferative activity against human LNCAP cells; assay type: functional, cell-based
compound,measurement,setting,value
O=C1C(c2ccc(O)c(O)c2)=c2c(c3c(n2CCc2ccc(O)cc2)=C(c2ccc(O)c(O)c2)C(=O)c2cc(O)c(O)cc2-3)-c2cc(O)c(O)cc21 [PURPURONE],IC50,ATP-citrate synthase [1],7 µM
CS(=N)(=O)C[C@@](O)(CC(=O)O)C(=O)O (stereo not given in full),Ki,ATP-citrate synthase [2],250 µM
O=C(O)C[C@@](O)(C[C@H](O)CCCCCCc1ccc(Cl)cc1Cl)C(=O)O,inhibition (INH),Rattus norvegicus [3],<=46%
same,inhibition (INH),Rattus norvegicus [4],<=80%
same,inhibition (INH),Canis familiaris [5],<=23%
same,inhibition (INH),Canis familiaris [6],<=38%
CC1=CC(O)=C2C(=O)c3c(ccc(-c4ccc5c(c4O)C(=O)C4=C(O)C6OC6(C)C(OC(=O)CC(=O)O)C4(C)O5)c3O)OC2(C)C1=O (stereo not given),IC50,ATP-citrate synthase [7],6.19 µM
O=C1C[C@@](O)(C(=O)O)[C@@H](C(=O)O)O1,Ki,ATP-citrate synthase [7],50 to 100 µM
O=C(O)C[C@@](O)(C(=O)O)[C@H](O)C(=O)O,Ki,ATP-citrate synthase [8],300 µM
CCCCCC[C@H]1C(=O)O[C@H](C)[C@H](NC(=O)c2cccc(NC=O)c2O)C(=O)O[C@@H](C)[C@@H]1OC(=O)C(C)C,Ki,ATP-citrate synthase [7],4 µM
Clc1cccc(-c2ccc(Cl)c(Cl)c2Cl)c1Cl,inhibition (INH),Rattus norvegicus [9],69%
CC(C)CC[C@H]1C(=O)O[C@H](C)[C@H](NC(=O)c2cccc(NC=O)c2O)C(=O)O[C@@H](C)[C@@H]1OC(=O)CC(C)C,Ki,ATP-citrate synthase [7],4 µM
O=CC(=O)c1ccccc1,inhibition,[10],85%
O=C(O)C[C@@]1(O)C[C@@H](CCCCCCc2ccc(Cl)cc2Cl)OC1=O,IC50,PC-3,26 µM
same,inhibition,[11],91%
same,inhibition,[12],82%
same,IC50,A549,24 µM
same,IC50,SK-OV-3,53 µM
N[C@@H](CCC(=O)O)C(=O)O [GLUTAMIC ACID],Ki,ATP-citrate synthase [7],300 µM
CCC(C)C(=O)O[C@H]1[C@H](C)OC(=O)[C@@H](NC(=O)c2cccc(NC=O)c2O)[C@@H](C)OC(=O)[C@@H]1CCC(C)C (stereo not given in full),Ki,ATP-citrate synthase [7],4 µM
CCCCCC[C@H]1C(=O)O[C@H](C)[C@H](NC(=O)c2cccc(NC=O)c2O)C(=O)O[C@@H](C)[C@@H]1OC(=O)CCC,Ki,ATP-citrate synthase [7],4 µM
CC(=O)OC(C)(C)/C=C/C(=O)[C@](C)(O)[C@H]1[C@H](O)C[C@@]2(C)[C@@H]3CC=C4[C@@H](C[C@H](O)C(=O)C4(C)C)[C@]3(C)C(=O)C[C@]12C,IC50,PC-3,0.1 µM
same,IC50,LNCaP,0.1 µM
CC(=O)C(C)=O,inhibition,[10],35%
CC12Oc3ccc(-c4ccc5c(c4O)C(=O)C4=C(O)C6OC6(C)C(OC(=O)CC(=O)O)C4(C)O5)c(O)c3C(=O)C1=C(O)C1OC1(C)C2O (stereo not given),IC50,ATP-citrate synthase [7],9.63 µM
